Test results from PMC11769294, “(E)-1-(3-(3-Hydroxy-4-Methoxyphenyl)-1-(3,4,5-Trimethoxyphenyl)allyl)-1H-1,2,4-Triazole and Related Compounds: Their Synthesis and Biological Evaluation as Novel Antimitotic Agents Targeting Breast Cancer” (Pharmaceuticals, 2025).
Where “and” joins values, the source holds several entries; their conditions need not be identical. Identical values can stand only once.

Key:
Type in all cases: cell-based, human
[1] = system: breast cancer panel; experiment: NCI60 screen (SRB), panel mean; conditions: BC panel; one dose 10 µM; 48 h
[2] = system: leukemia panel; experiment: NCI60 screen (SRB), panel mean; conditions: one dose 10 µM, 48 h
[3] = system: CCRF-CEM (Leukemia); experiment: NCI60 screen (SRB); conditions: one dose 10 µM, 48 h
[4] = system: K-562 (Leukemia); experiment: NCI60 screen (SRB); conditions: one dose 10 µM, 48 h
[5] = system: RPMI-8226 (Leukemia); experiment: NCI60 screen (SRB); conditions: one dose 10 µM, 48 h
[6] = system: HOP-62 (Non-Small Cell Lung Cancer); experiment: NCI60 screen (SRB); conditions: one dose 10 µM, 48 h
[7] = system: HOP-92 (Non-Small Cell Lung Cancer); experiment: NCI60 screen (SRB); conditions: one dose 10 µM, 48 h
[8] = system: NCI-H23 (Non-Small Cell Lung Cancer); experiment: NCI60 screen (SRB); conditions: one dose 10 µM, 48 h
[9] = system: NCI-H322M (Non-Small Cell Lung Cancer); experiment: NCI60 screen (SRB); conditions: one dose 10 µM, 48 h
[10] = system: NCI-H522 (Non-Small Cell Lung Cancer); experiment: NCI60 screen (SRB); conditions: one dose 10 µM, 48 h
[11] = system: HCT-15 (Colon Cancer); experiment: NCI60 screen (SRB); conditions: one dose 10 µM, 48 h
[12] = system: HT29 (Colon Cancer); experiment: NCI60 screen (SRB); conditions: one dose 10 µM, 48 h
[13] = system: KM12 (Colon Cancer); experiment: NCI60 screen (SRB); conditions: one dose 10 µM, 48 h
[14] = system: SW-620 (Colon Cancer); experiment: NCI60 screen (SRB); conditions: one dose 10 µM, 48 h
[15] = system: SF-268 (CNS Cancer); experiment: NCI60 screen (SRB); conditions: one dose 10 µM, 48 h
[16] = system: SF-295 (CNS Cancer); experiment: NCI60 screen (SRB); conditions: one dose 10 µM, 48 h
[17] = system: SF-539 (CNS Cancer); experiment: NCI60 screen (SRB); conditions: one dose 10 µM, 48 h
[18] = system: SNB-75 (CNS Cancer); experiment: NCI60 screen (SRB); conditions: one dose 10 µM, 48 h
[19] = system: U251 (CNS Cancer); experiment: NCI60 screen (SRB); conditions: one dose 10 µM, 48 h
[20] = system: LOX IMVI (Melanoma); experiment: NCI60 screen (SRB); conditions: one dose 10 µM, 48 h
[21] = system: MALME-3M (Melanoma); experiment: NCI60 screen (SRB); conditions: one dose 10 µM, 48 h
[22] = system: M14 (Melanoma); experiment: NCI60 screen (SRB); conditions: one dose 10 µM, 48 h
[23] = system: MDA-MB-435 (Melanoma); experiment: NCI60 screen (SRB); conditions: one dose 10 µM, 48 h
[24] = system: SK-MEL-28 (Melanoma); experiment: NCI60 screen (SRB); conditions: one dose 10 µM, 48 h
[25] = system: SK-MEL-5 (Melanoma); experiment: NCI60 screen (SRB); conditions: one dose 10 µM, 48 h
[26] = system: UACC-62 (Melanoma); experiment: NCI60 screen (SRB); conditions: one dose 10 µM, 48 h
[27] = system: IGROV1 (Ovarian Cancer); experiment: NCI60 screen (SRB); conditions: one dose 10 µM, 48 h
[28] = system: OVCAR-3 (Ovarian Cancer); experiment: NCI60 screen (SRB); conditions: one dose 10 µM, 48 h
[29] = system: OVCAR-4 (Ovarian Cancer); experiment: NCI60 screen (SRB); conditions: one dose 10 µM, 48 h
[30] = system: OVCAR-5 (Ovarian Cancer); experiment: NCI60 screen (SRB); conditions: one dose 10 µM, 48 h
[31] = system: OVCAR-8 (Ovarian Cancer); experiment: NCI60 screen (SRB); conditions: one dose 10 µM, 48 h
[32] = system: 786-0 (Renal Cancer); experiment: NCI60 screen (SRB); conditions: one dose 10 µM, 48 h
[33] = system: A498 (Renal Cancer); experiment: NCI60 screen (SRB); conditions: one dose 10 µM, 48 h
[34] = system: ACHN (Renal Cancer); experiment: NCI60 screen (SRB); conditions: one dose 10 µM, 48 h
[35] = system: CAKI-1 (Renal Cancer); experiment: NCI60 screen (SRB); conditions: one dose 10 µM, 48 h
[36] = system: RXF 393 (Renal Cancer); experiment: NCI60 screen (SRB); conditions: one dose 10 µM, 48 h
[37] = system: TK-10 (Renal Cancer); experiment: NCI60 screen (SRB); conditions: one dose 10 µM, 48 h
[38] = system: UO-31 (Renal Cancer); experiment: NCI60 screen (SRB); conditions: one dose 10 µM, 48 h
[39] = system: PC-3 (Prostate Cancer); experiment: NCI60 screen (SRB); conditions: one dose 10 µM, 48 h
[40] = system: MCF7 (Breast Cancer); experiment: NCI60 screen (SRB); conditions: one dose 10 µM, 48 h
[41] = system: MDA-MB-231/ATCC (Breast Cancer); experiment: NCI60 screen (SRB); conditions: one dose 10 µM, 48 h
[42] = system: BT-549 (Breast Cancer); experiment: NCI60 screen (SRB); conditions: one dose 10 µM, 48 h

COc1ccc(/C=C/C(c2cc(OC)c(OC)c(OC)c2)n2cncn2)cc1 (stereo not drawn) [Compound 22a, (E)-1-(3-(4-Methoxyphenyl)-1-(3,4,5-trimethoxyphenyl)allyl)-1H-1,2,4-triazole] showed a mean growth percentage [1] of 40.1%, a mean growth percentage [2] of 24.0% and a growth percent [3] of 35.07%. For the same compound, the growth percent [4] was 17.72%, the growth percent [5] was 50.84% and the growth percent [6] was 41.84%. It also gave a growth percent [7] of 40.32%, a growth percent [8] of 67.01% and a growth percent [9] of 61.24%. It also gave a growth percent [10] of 28.37%, a growth percent [11] of 31.14% and a growth percent [12] of 4.96%. The growth percent [13] was 30.66%, the growth percent [14] was 26.63% and the growth percent [15] was 57.07%. It also gave a growth percent [16] of 22.52%, a growth percent [17] of 56.52% and a growth percent [18] of 51.27%. For the same compound, the growth percent [19] was 31.77%, the growth percent [20] was 49.98% and the growth percent [21] was 61.34%. The growth percent [22] was 17.86%, the growth percent [23] was −9.62% and the growth percent [24] was 62.59%. The growth percent [25] was 33.03%, the growth percent [26] was 33.84% and the growth percent [27] was 64.61%. The growth percent [28] was 9.06%, the growth percent [29] was 96.82% and the growth percent [30] was 90.16%. For the same compound, the growth percent [31] was 52.16%, the growth percent [32] was 39.65% and the growth percent [33] was 36.38%. The growth percent [34] was 57.45%, the growth percent [35] was 51.61% and the growth percent [36] was 46.51%. The growth percent [37] was 48.52%, the growth percent [38] was 64.39% and the growth percent [39] was 31.20%. For the same compound, the growth percent [40] was 22.5% and 22.48%, the growth percent [41] was 50.05% and the growth percent [42] was 45.45%.
